Test results published in patent US12018023B2 (NERVIANO MEDICAL SCIENCES S.R.L., priority 2018, dated 2024).

Tests used:
[1] = molecular target: T1, IDH1^R132C (Homo sapiens, UniProt O75874, R132C); assay: NADPH depletion assay, IDH1 R132C; type: biochemical
T1 construct: purchased not specified
How it was run: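 IDH1 R132C (2 nM) preincubated 15 min at RT with compound in Tris-HCl pH 7.6/MgCl2 buffer, then 60 min RT with NADPH and 0.14 mM alpha-ketoglutarate. Remaining NADPH read by diaphorase/resazurin fluorescence (Ex544/Em590).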

[2] = test system: HT-1080 (IDH1^R132C); assay: Cellular 2-HG production assay, HT-1080; type: cell-based; conditions: inhibition of 2HG production, 72 hr incubation, LC-MS/MS; read-out: HT1080 2-HG IC50
Experimental: Cell lines HT-1080 (commercially available) and U87-MG-IDH1^R132H (obtained in analoy to the procedure reported in J. Mol. Neurosci 2013, 50, 165-71) are maintained in E-MEM 10% FCS and incubated at 37° C. in a humidified 5% CO2 atmosphere. Stably transfected U87-MG cell lines are also supplemented with 500 μg/mL G418.
Cells are seeded into 96 well black flat bottom plates at a density of 500 cells/well in 100 μL complete medium. After 24 hr the medium is replaced with 200 uL of fresh medium and compounds (dissolved into DMSO) are administrated to the cells using D300E Digital Dispenser (Tecan).
After 72 hr of incubation 100 uL from each well are collected and used for 2HG (R(−)-2-hydroxyglutarate) quantification.
Levels of 2-HG in cell culture media are determined by LC-MS/MS. Cell supernatants (100 μL/well) are treated with 1 M aqueous trichloroacetic acid containing 130 μM of the internal standard 2-HG-d3 (20 μL/well) in a 96-well plate.
The plates are sealed, mildly vortexed for 60 minutes, centrifuged at 4,000 RPM for 15 minutes, placed in a refrigerated autosampler taking care not to shake them, and aliquots of the upper part of the samples are directly injected in the chromatographic system. Calibration standards are obtained by ten fold dilution of aqueous 2-HG stock solutions with blank cell culture medium and denatured exactly in the same way as described above for samples. Samples and standards are assayed for 2-HG by reversed phase chromatography on a C18 column eluted with aqueous 0.15% formic acid and briefly washed with 90% methanol at the end of the run. 2-HG is determined by negative ion electrospray ionization with the internal standard method on a triple quadrupole mass spectrometer monitoring the MRM transitions 147>129 (2-HG) and 150>132 (2-HG-d3). 2-HG inhibition was calculated by comparing treated versus control data using Assay Explore (Symyx) software, with IC50 determined using a sigmoidal fitting algorithm.

[3] = molecular target: T2, IDH1^R132H homodimer enzyme (Homo sapiens, UniProt O75874, R132H); assay: NADPH depletion assay, IDH1 R132H; type: biochemical
T2 construct: purchased not specified
T2 sequence (O75874 whole entry R132H): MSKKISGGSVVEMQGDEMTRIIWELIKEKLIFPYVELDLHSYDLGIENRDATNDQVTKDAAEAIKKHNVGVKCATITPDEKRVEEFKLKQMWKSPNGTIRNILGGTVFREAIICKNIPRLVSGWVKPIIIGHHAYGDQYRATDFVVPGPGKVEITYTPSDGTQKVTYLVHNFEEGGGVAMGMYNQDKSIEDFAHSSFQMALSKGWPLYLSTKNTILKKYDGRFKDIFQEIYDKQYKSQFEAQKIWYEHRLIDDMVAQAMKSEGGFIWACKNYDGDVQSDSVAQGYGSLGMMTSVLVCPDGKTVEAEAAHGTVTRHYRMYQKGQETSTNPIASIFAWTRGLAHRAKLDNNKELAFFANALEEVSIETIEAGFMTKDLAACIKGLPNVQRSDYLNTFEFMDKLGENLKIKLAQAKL
How it was run: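 IDH1 R132H enzyme (8 nM as diluted) in Tris-HCl pH 7.6 with 10 mM MgCl2, 0.001% Triton X-100 and 4 mM β-mercaptoethanol is preincubated 15 min at RT with compound. Substrate mix (12 uM NADPH, 3.4 mM α-ketoglutarate) is added for 60 min; remaining NAD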

[4] = molecular target: T3, IDH2^R172K (Homo sapiens, UniProt P48735, R172K); assay: NADPH depletion assay, IDH2 R172K; type: biochemical
T3 construct: purchased not specified
T3 sequence (P48735 40-452 R172K): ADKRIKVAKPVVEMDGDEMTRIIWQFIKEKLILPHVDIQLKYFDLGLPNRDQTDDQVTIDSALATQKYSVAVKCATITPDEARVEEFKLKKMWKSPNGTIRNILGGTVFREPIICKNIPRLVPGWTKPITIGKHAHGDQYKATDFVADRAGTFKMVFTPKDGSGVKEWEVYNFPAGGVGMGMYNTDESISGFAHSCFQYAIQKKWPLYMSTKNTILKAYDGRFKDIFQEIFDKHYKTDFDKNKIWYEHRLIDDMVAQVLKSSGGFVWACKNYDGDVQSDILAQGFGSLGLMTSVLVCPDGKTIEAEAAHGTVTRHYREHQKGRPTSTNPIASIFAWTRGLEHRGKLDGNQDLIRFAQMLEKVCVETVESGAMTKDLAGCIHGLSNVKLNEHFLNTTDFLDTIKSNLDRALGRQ
Experimental: IDH mutated enzyme activity converting alpha-ketoglutarate to 2-hydroxyglutaric acid is measured using a NADPH depletion assay. In the assay the remaining cofactor is measured at the end of the reaction with the addition of a catalytic excess of diaphorase and resazurin, to generate a fluorescent signal in proportion to the amount of NADPH remaining. IDH1 WT enzyme as well as mutated isoforms IDH1^R132H, IDH1^R132C, and IDH^2R172K enzymes are commercially available proteins (see e.g. Sino Biological, Abcam, Active Motif or Creative BioMart).
IDH1^R132H homodimer enzyme are diluted to 8 nM, in 10 μL of Assay Buffer (150 mM NaCl, 50 mM Tris-HCl pH 7.6, 10 mM MgCl2, 0.001% Triton X-100, 4 mM β-mercaptoethanol); 0.2 uL of test compound, previously serially diluted 1 to 3, >10 experimental points from 1 mM in DMSO, is added and the mixture is incubated for 15 minutes at room temperature. The reaction is started with the addition of 10 μL of Substrate Mix (12 uM NADPH, 3.4 mM alpha-ketoglutarate in Assay Buffer) and the mixture is incubated for 60 minutes at room temperature. The reaction is terminated with the addition of 5 μl of Detection Buffer (100 μg/mL diaphorase, 30 μM resazurin, in IX Assay Buffer), and is incubated for 15 minute before reading on a ViewLux as platereader at Ex544/Em590.
Compounds are assayed for their activity against IDH2^R172K following the same assay as above with the following modifications: IDH2^R172K and alpha-ketoglutarate final concentrations in the Assay Buffer is 16 nM and 0.55 mM, respectively.

T1 sequence (O75874 whole entry R132C): as the sequence (O75874 whole entry R132H) above, with H132C counted along it

IC50 [1]	IC50 [2]	IC50 [3]	IC50 [4]	SMILES
61 nM	53.1 nM	–	–	C=CC(=O)N1CCN(Cc2ccc([C@H](C)Nc3ncc4ccc(=O)n(CC)c4n3)cc2)C(C(C)C)C1 (stereo in doubt) [cpd 212, 2-{[(1S)-1-(4-{[(2S)-4-acryloyl-2-(propan-2-yl)piperazin-1-yl]methyl}phenyl)ethyl]amino}-8-ethylpyrido[2,3-d]pyrimidin-7(8H)-one]
65 nM	–	158 nM	5620 nM	C[C@H](Nc1ncc2ccc(=O)n(CC(C)(C)C)c2n1)c1ccc(CN2CCC(F)(F)CC2)cc1F [cpd 152, 2-{[(1S)-1-{4-[(4,4-difluoropiperidin-1-yl)methyl]-2-fluorophenyl}ethyl]amino}-8-(2,2-dimethylpropyl)pyrido [2,3-d]pyrimidin-7(8H)-one]
79 nM	–	199 nM	5380 nM	C[C@H](Nc1ncc2ccc(=O)n(CC(C)(C)C)c2n1)c1ccc(OC2CCN(C(=O)OC(C)(C)C)CC2)cc1 [cpd 154, 4-(4-{(S)-1-[8-(2,2-Dimethyl-propyl)-7-oxo-7,8-dihydro-pyrido[2,3-d]pyrimidin-2-ylamino]-ethyl}-phenoxy)-piperidine-1-carboxylic acid tert-butyl ester]
87 nM	–	163 nM	6600 nM	CC(C)[C@H](C)n1c(=O)ccc2cnc(N[C@@H](C)c3ccc(Br)cc3)nc21 [cpd 163, 2-{[(1S)-1-(4-bromophenyl)ethyl]amino}-8-[(2S)-3-methylbutan-2-yl]pyrido[2,3-d]pyrimidin-7(8H)-one]
85 nM	–	157 nM	5660 nM	CC(C)[C@H](C)n1c(=O)ccc2cnc(N[C@@H](C)c3ccc(-c4ccccc4C#N)cc3)nc21 [cpd 165, 4′-[(1S)-1-({8-[(2S)-3-methylbutan-2-yl]-7-oxo-7,8-dihydropyrido[2,3-d]pyrimidin-2-yl}amino)ethyl]biphenyl-2-carbonitrile]
93 nM	–	179 nM	7570 nM	CC(C)[C@H](C)n1c(=O)ccc2cnc(N[C@@H](C)c3ccc(-c4ccnc(F)c4)cc3)nc21 [cpd 166, 2-({(1S)-1-[4-(2-fluoropyridin-4-yl)phenyl]ethyl}amino)-8-[(2S)-3-methylbutan-2-yl]pyrido[2,3-d]pyrimidin-7(8H)-one]
23 nM	–	30 nM	2560 nM	CC(C)[C@H](C)n1c(=O)ccc2cnc(N[C@@H](C)c3ccc(C4=CCN(C(=O)OC(C)(C)C)CC4)cc3)nc21 [cpd 167, tert-butyl 4-{4-[(1S)-1-({8-[(2S)-3-methylbutan-2-yl]-7-oxo-7,8-dihydropyrido[2,3-d]pyrimidin-2-yl}amino)ethyl]phenyl}-3,6-dihydropyridine-1(2H)-carboxylate]
56 nM	–	179 nM	3590 nM	CC(C)[C@H](C)n1c(=O)ccc2cnc(N[C@@H](C)c3cc4cc(Cl)ccc4[nH]c3=O)nc21 [cpd 172, 2-{[(1S)-1-(6-chloro-2-oxo-1,2-dihydroquinolin-3-yl)ethyl]amino}-8-[(2S)-3-methylbutan-2-yl]pyrido[2,3-d]pyrimidin-7(8H)-one]
30 nM	–	46 nM	5020 nM	CC(C)[C@H](C)n1c(=O)ccc2cnc(N[C@@H](C)c3ccc(N4CCN(C(=O)OCc5ccccc5)CC4)c(F)c3)nc21 [cpd 178, Benzyl 4-{2-fluoro-4-[(1S)-1-({8-[(2S)-3-methylbutan-2-yl]-7-oxo-7,8-dihydropyrido[2,3-d]pyrimidin-2-yl}amino)ethyl]phenyl}piperazine-1-carboxylate]
63 nM	–	123 nM	2350 nM	C=CC(=O)N1CCN(c2ccc([C@H](C)Nc3ncc4ccc(=O)n([C@@H](C)C(C)C)c4n3)cc2F)CC1 [cpd 179, 2-({(1S)-1-[4-(4-acryloylpiperazin-1-yl)-3-fluorophenyl]ethyl}amino)-8-[(2S)-3-methylbutan-2-yl]pyrido[2,3-d]pyrimidin-7(8H)-one]
3600 nM	–	1940 nM	679 nM	C=CC(=O)N1CCN(C(=O)c2ccc([C@H](C)Nc3ncc4ccc(=O)n(CC)c4n3)cc2)CC1 [cpd 190, 2-{[(1S)-1-{4-[(4-acryloylpiperazin-1-yl)carbonyl]phenyl}ethyl]amino}-8-ethylpyrido[2,3-d]pyrimidin-7(8H)-one]
252 nM	–	227 nM	645 nM	C=CC(=O)N1CCC(NC(=O)c2ccc([C@H](C)Nc3ncc4ccc(=O)n(C(C)C)c4n3)cc2F)CC1 [cpd 192, N-(1-acryloylpiperidin-4-yl)-2-fluoro-4-[(1S)-1-{[7-oxo-8-(propan-2-yl)-7,8-dihydropyrido[2,3-d]pyrimidin-2-yl]amino}ethyl]benzamide]
200 nM	–	338 nM	1790 nM	C=CC(=O)N1CC=C(c2ccc([C@H](C)Nc3ncc4ccc(=O)n([C@@H](C)C(C)C)c4n3)nc2)CC1 [cpd 194, 2-{[(1S)-1-(1′-acryloyl-1′,2′,3′,6′-tetrahydro-3,4′-bipyridin-6-yl)ethyl]amino}-8-[(2S)-3-methylbutan-2-yl]pyrido [2,3-d]pyrimidin-7(8H)-one]
401 nM	–	132 nM	248 nM	C=CC(=O)N1CCN(Cc2ccc([C@H](C)Nc3ncc4ccc(=O)n([C@@H](C)CF)c4n3)cc2)CC1 [cpd 198, 2-{[(1S)-1-{4-[(4-acryloylpiperazin-1-yl)methyl]phenyl}ethyl]amino}-8-[(2S)-1-fluoropropan-2-yl]pyrido[2,3-d]pyrimidin-7(8H)-one]
1530 nM	–	1400 nM	717 nM	C=CC(=O)N1CCN(Cc2ccc([C@H](C)Nc3ncc4ccc(=O)n([C@@H](C)CO)c4n3)cc2)CC1 [cpd 199, 2-{[(1S)-1-{4-[(4-acryloylpiperazin-1-yl)methyl]phenyl}ethyl]amino}-8-[(2S)-1-hydroxypropan-2-yl]pyrido[2,3-d]pyrimidin-7(8H)-one]
48 nM	–	128 nM	5110 nM	C[C@H](Nc1cc2c(ccc(=O)n2CC(C)(C)C)cn1)c1ccc(CN2CCCC(F)(F)C2)cc1 [cpd 235, 7-{(S)-1-[4-(3,3-Difluoro-piperidin-1-ylmethyl)-phenyl]-ethylamino}-1-(2,2-dimethyl-propyl)-1H-[1,6]naphthyridin-2-one]
